PMC9782376 (2022)

How the values were obtained:
[1] = system: aptananozyme IV (amino-DBA with (TGTA)2 spacer (4) on Ce4+-ion-modified C-dots) (DNA, aptamer) TGTATGTACGACGCCAGTTTGAAGGTTCGTTCGCAGGTGTGGAGTGACGTCG; assay: ITC; settings: 100 mM NaCl, 5 mM MgCl2; 5 mM MES pH 5.5; aptamer immobilised on Ce4+-C-dots; 20 µM aptananozyme, 600 µM dopamine titrant
[2] = system: DBA (free dopamine binding aptamer) (DNA, aptamer) CGACGCCAGTTTGAAGGTTCGTTCGCAGGTGTGGAGTGACGTCG; settings: conditions not stated
[3] = system: aptananozyme III (amino-DBA with (TGTA) spacer (3) on Ce4+-ion-modified C-dots) (DNA, aptamer) TGTACGACGCCAGTTTGAAGGTTCGTTCGCAGGTGTGGAGTGACGTCG; assay: ITC; settings: 100 mM NaCl, 5 mM MgCl2; 5 mM MES pH 5.5; aptamer immobilised on Ce4+-C-dots; 20 µM aptananozyme, 600 µM dopamine titrant
[4] = system: aptananozyme V (amino-DBA with (TGTA)3 spacer (5) on Ce4+-ion-modified C-dots) (DNA, aptamer) TGTATGTATGTACGACGCCAGTTTGAAGGTTCGTTCGCAGGTGTGGAGTGACGTCG; assay: ITC; settings: 100 mM NaCl, 5 mM MgCl2; 5 mM MES pH 5.5; aptamer immobilised on Ce4+-C-dots; 20 µM aptananozyme, 600 µM dopamine titrant

`NCCc1ccc(O)c(O)c1` gave a Kd [1] of 0.88 ± 0.04 µM, a Kd [2] of 0.72 ± 0.03 µM and a Kd [3] of 0.95 ± 0.03 µM. It also gave a Kd [4] of 0.91 ± 0.10 µM.
